Source: patent publication US12252524B2, “GIP/GLP1 co-agonist compounds” (Eli Lilly and Company, priority 2018, dated 2025)
Numbered stars: 1 amine (or outer) side, 2 acyl side, 3 side chain; on linkers, the order of the positions; unused ones are H or OH. Square brackets hold non-standard residues; d marks the D form. Side chains are listed from the residue outwards. Peptide text beside a SMILES is read from it. * marks the point of attachment. C20 diacid = O=C(O)CCCCCCCCCCCCCCCCCCC(=O)*; αMePhe(2-F) = C[C@](N)(Cc1ccccc1F)C(=O)O; γGlu = O=C(O)[C@H](CCC(=O)[*:2])N[*:1]; αMeF = C[C@](N)(Cc1ccccc1)C(=O)O; 3Pal = N[C@@H](Cc1cccnc1)C(=O)O; αMeL = CC(C)C[C@](C)(N)C(=O)O; AEEA = NCCOCCOCC(=O)O; Aib = CC(C)(N)C(=O)O

What was measured:
[1] = molecular target: human GLP-1 receptor (GLP-1R) (Homo sapiens, UniProt P43220); assay: cAMP pharmacological functional assay in presence of casein, hGLP-1R; format: cell-based; settings: HEK293 cells expressing hGLP-1R, 0.1% Casein, geometric mean; read-out: hGLP1R cAMP Rel EC50 nM (SEM, n)
[2] = molecular target: T1, gastric inhibitory peptide receptor (GIPR) (Homo sapiens, UniProt P48546); assay: cAMP pharmacological functional assay in presence of casein, hGIPR; format: cell-based; settings: HEK293 cells expressing hGIPR, 0.1% Casein, geometric mean; read-out: hGIPR cAMP Rel EC50 nM (SEM, n)
T1 sequence (P48546 22-466): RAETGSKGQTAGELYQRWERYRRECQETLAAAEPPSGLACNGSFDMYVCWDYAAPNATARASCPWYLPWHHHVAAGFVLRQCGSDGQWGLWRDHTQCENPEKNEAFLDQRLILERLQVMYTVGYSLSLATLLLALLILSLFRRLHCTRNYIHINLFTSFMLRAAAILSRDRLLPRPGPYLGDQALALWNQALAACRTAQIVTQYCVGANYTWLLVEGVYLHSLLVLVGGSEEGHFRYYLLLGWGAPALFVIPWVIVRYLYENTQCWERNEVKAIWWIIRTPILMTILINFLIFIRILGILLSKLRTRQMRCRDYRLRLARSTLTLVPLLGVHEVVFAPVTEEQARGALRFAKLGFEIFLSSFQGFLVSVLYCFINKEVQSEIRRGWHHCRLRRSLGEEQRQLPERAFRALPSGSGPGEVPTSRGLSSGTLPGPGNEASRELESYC

Sequence of human GLP-1 receptor (GLP-1R) (P43220 24-463): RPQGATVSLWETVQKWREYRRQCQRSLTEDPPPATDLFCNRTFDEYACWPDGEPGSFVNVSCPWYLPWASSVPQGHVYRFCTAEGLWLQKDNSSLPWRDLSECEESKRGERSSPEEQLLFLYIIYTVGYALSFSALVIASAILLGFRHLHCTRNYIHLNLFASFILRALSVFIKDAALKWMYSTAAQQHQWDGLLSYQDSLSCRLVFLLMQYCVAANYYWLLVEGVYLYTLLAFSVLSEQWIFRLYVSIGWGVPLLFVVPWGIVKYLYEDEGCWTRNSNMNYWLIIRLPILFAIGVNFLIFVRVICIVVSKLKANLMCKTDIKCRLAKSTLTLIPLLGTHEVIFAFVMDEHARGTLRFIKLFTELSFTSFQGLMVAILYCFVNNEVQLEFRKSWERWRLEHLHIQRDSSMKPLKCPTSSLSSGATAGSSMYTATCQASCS

## CC[C@H](C)[C@H](NC(=O)[C@H](CC(C)C)NC(=O)[C@H](Cc1ccc(O)cc1)NC(=O)[C@H](CCC(=O)O)NC(=O)[C@@H](NC(=O)[C@H](Cc1ccccc1)NC(=O)[C@H](C)NC(=O)C(C)(C)NC(=O)[C@H](CCC(N)=O)NC(=O)[C@H](C)NC(=O)[C@H](CCCCNC(=O)COCCOCCNC(=O)COCCOCCNC(=O)CC[C@H](NC(=O)CCCCCCCCCCCCCCCCCCC(=O)O)C(=O)O)NC(=O)[C@H](CCCCN)NC(=O)[C@H](CC(=O)O)NC(=O)[C@H](CC(C)C)NC(=O)[C@H](CC(C)C)NC(=O)[C@@H](NC(=O)[C@H](CO)NC(=O)[C@H](Cc1cccnc1)NC(=O)[C@H](CC(=O)O)NC(=O)[C@H](CO)NC(=O)[C@@H](NC(=O)[C@](C)(Cc1ccccc1)NC(=O)[C@@H](NC(=O)CNC(=O)[C@H](CCC(=O)O)NC(=O)C(C)(C)NC(=O)[C@@H](N)Cc1ccc(O)cc1)[C@@H](C)O)[C@@H](C)O)[C@@H](C)CC)[C@@H](C)CC)C(=O)N[C@@H](CCC(=O)O)C(=O)NCC(=O)NCC(=O)N1CCC[C@H]1C(=O)N[C@@H](CO)C(=O)N[C@@H](CO)C(=O)NCC(=O)N[C@@H](C)C(=O)N1CCC[C@H]1C(=O)N1CCC[C@H]1C(=O)N1CCC[C@H]1C(=O)N[C@@H](CO)C(N)=O [Example 132] (H-Y[Aib]EGT[αMeF]TSD[3Pal]SILLDKK([AEEA-AEEA-γGlu-C20 diacid])AQ[Aib]AFIEYLIEGGPSSGAPPPS-NH2)
[1]
  EC50: 0.26 nM
[2]
  EC50: 0.0657 nM

## CC[C@H](C)[C@H](NC(=O)[C@H](CC(C)C)NC(=O)[C@H](Cc1ccc(O)cc1)NC(=O)[C@H](CCC(=O)O)NC(=O)[C@@H](NC(=O)[C@H](Cc1ccccc1)NC(=O)[C@H](C)NC(=O)C(C)(C)NC(=O)[C@H](CCC(N)=O)NC(=O)[C@H](C)NC(=O)[C@H](CCCCNC(=O)COCCOCCNC(=O)COCCOCCNC(=O)CC[C@H](NC(=O)CCCCCCCCCCCCCCCCCCC(=O)O)C(=O)O)NC(=O)[C@H](CCCCN)NC(=O)[C@H](CC(=O)O)NC(=O)[C@H](CC(C)C)NC(=O)[C@H](CC(C)C)NC(=O)[C@@H](NC(=O)[C@H](CO)NC(=O)[C@H](C)NC(=O)[C@H](CC(=O)O)NC(=O)[C@H](CO)NC(=O)[C@@H](NC(=O)[C@H](Cc1ccccc1)NC(=O)[C@@H](NC(=O)CNC(=O)[C@H](CCC(=O)O)NC(=O)C(C)(C)NC(=O)[C@@H](N)Cc1ccc(O)cc1)[C@@H](C)O)[C@@H](C)O)[C@@H](C)CC)[C@@H](C)CC)C(=O)N[C@@H](CCC(=O)O)C(=O)N[C@@H](C)C(=O)NCC(=O)N1CCC[C@H]1C(=O)N[C@@H](CO)C(=O)N[C@@H](CO)C(=O)NCC(=O)N[C@@H](C)C(=O)N1CCC[C@H]1C(=O)N1CCC[C@H]1C(=O)N1CCC[C@H]1C(=O)N[C@@H](CO)C(N)=O [Example 136] (H-Y[Aib]EGTFTSDASILLDKK([AEEA-AEEA-γGlu-C20 diacid])AQ[Aib]AFIEYLIEAGPSSGAPPPS-NH2)
[1]
  EC50: 0.06 nM
[2]
  EC50: 3.39 nM

## CC[C@H](C)[C@H](NC(=O)[C@H](CC(C)C)NC(=O)[C@H](Cc1ccc(O)cc1)NC(=O)[C@H](CCC(=O)O)NC(=O)[C@@H](NC(=O)[C@H](Cc1ccccc1)NC(=O)[C@@H](NC(=O)C(C)(C)NC(=O)[C@H](CCC(N)=O)NC(=O)[C@H](C)NC(=O)[C@H](CCCCNC(=O)COCCOCCNC(=O)COCCOCCNC(=O)CC[C@H](NC(=O)CCCCCCCCCCCCCCCCCCC(=O)O)C(=O)O)NC(=O)[C@H](CCCCN)NC(=O)[C@H](CC(=O)O)NC(=O)[C@H](CC(C)C)NC(=O)[C@](C)(CC(C)C)NC(=O)[C@@H](NC(=O)[C@H](CO)NC(=O)[C@H](Cc1ccc(O)cc1)NC(=O)[C@H](CC(=O)O)NC(=O)[C@H](CO)NC(=O)[C@@H](NC(=O)[C@](C)(Cc1ccccc1)NC(=O)[C@@H](NC(=O)CNC(=O)[C@H](CCC(=O)O)NC(=O)C(C)(C)NC(=O)[C@@H](N)Cc1ccc(O)cc1)[C@@H](C)O)[C@@H](C)O)[C@@H](C)CC)[C@@H](C)CC)[C@@H](C)CC)C(=O)N[C@@H](CCC(=O)O)C(=O)NCC(=O)NCC(=O)N1CCC[C@H]1C(=O)N[C@@H](CO)C(=O)N[C@@H](CO)C(=O)NCC(=O)N[C@@H](C)C(=O)N1CCC[C@H]1C(=O)N1CCC[C@H]1C(=O)N1CCC[C@H]1C(=O)N[C@@H](CO)C(N)=O [Example 141] (H-Y[Aib]EGT[αMeF]TSDYSI[αMeL]LDKK([AEEA-AEEA-γGlu-C20 diacid])AQ[Aib]IFIEYLIEGGPSSGAPPPS-NH2; N-terminus assumed)
[1]
  EC50: 0.0975 nM
[2]
  EC50: 0.2 nM

## CC[C@H](C)[C@H](NC(=O)[C@H](CC(C)C)NC(=O)[C@H](Cc1ccc(O)cc1)NC(=O)[C@H](CCC(N)=O)NC(=O)[C@@H](NC(=O)[C@H](Cc1ccccc1)NC(=O)[C@H](CCC(=O)O)NC(=O)C(C)(C)NC(=O)[C@H](CCC(N)=O)NC(=O)[C@H](C)NC(=O)[C@H](CCCCNC(=O)COCCOCCNC(=O)COCCOCCNC(=O)CC[C@H](NC(=O)CCCCCCCCCCCCCCCCCCC(=O)O)C(=O)O)NC(=O)[C@H](CCC(=O)O)NC(=O)[C@H](CC(=O)O)NC(=O)[C@H](CC(C)C)NC(=O)[C@](C)(CC(C)C)NC(=O)[C@@H](NC(=O)[C@H](CO)NC(=O)[C@H](Cc1ccc(O)cc1)NC(=O)[C@H](CC(=O)O)NC(=O)[C@H](CO)NC(=O)[C@@H](NC(=O)[C@](C)(Cc1ccccc1F)NC(=O)[C@@H](NC(=O)CNC(=O)[C@H](CCC(=O)O)NC(=O)C(C)(C)NC(=O)[C@@H](N)Cc1ccc(O)cc1)[C@@H](C)O)[C@@H](C)O)[C@@H](C)CC)[C@@H](C)CC)C(=O)N[C@@H](CCC(=O)O)C(=O)NCC(=O)NCC(=O)N1CCC[C@H]1C(=O)N[C@@H](CO)C(=O)N[C@@H](CO)C(=O)NCC(=O)N[C@@H](C)C(=O)N1CCC[C@H]1C(=O)N1CCC[C@H]1C(=O)N1CCC[C@H]1C(=O)N[C@@H](CO)C(N)=O [Example 146] (H-Y[Aib]EGT[αMePhe(2-F)]TSDYSI[αMeL]LDEK([AEEA-AEEA-γGlu-C20 diacid])AQ[Aib]EFIQYLIEGGPSSGAPPPS-NH2)
[1]
  EC50: 0.0604 nM
[2]
  EC50: 0.0583 nM

## CC[C@H](C)[C@H](NC(=O)[C@H](Cc1ccccc1)NC(=O)[C@H](CCC(=O)O)NC(=O)C(C)(C)NC(=O)[C@H](CCC(N)=O)NC(=O)[C@H](C)NC(=O)[C@H](CCCCNC(=O)COCCOCCNC(=O)COCCOCCNC(=O)CC[C@H](NC(=O)CCCCCCCCCCCCCCCCCCC(=O)O)C(=O)O)NC(=O)[C@H](CCC(=O)O)NC(=O)[C@H](CC(=O)O)NC(=O)[C@H](CC(C)C)NC(=O)[C@](C)(CC(C)C)NC(=O)[C@@H](NC(=O)[C@H](CO)NC(=O)[C@H](Cc1ccc(O)cc1)NC(=O)[C@H](CC(=O)O)NC(=O)[C@H](CO)NC(=O)[C@@H](NC(=O)[C@](C)(Cc1ccccc1F)NC(=O)[C@@H](NC(=O)CNC(=O)[C@H](CCC(=O)O)NC(=O)C(C)(C)NC(=O)[C@@H](N)Cc1ccc(O)cc1)[C@@H](C)O)[C@@H](C)O)[C@@H](C)CC)C(=O)N[C@@H](C)C(=O)N[C@@H](Cc1ccc(O)cc1)C(=O)N[C@@H](CC(C)C)C(=O)N[C@H](C(=O)N[C@@H](CCC(=O)O)C(=O)NCC(=O)NCC(=O)N1CCC[C@H]1C(=O)N[C@@H](CO)C(=O)N[C@@H](CO)C(=O)NCC(=O)N[C@@H](C)C(=O)N1CCC[C@H]1C(=O)N1CCC[C@H]1C(=O)N1CCC[C@H]1C(=O)N[C@@H](CO)C(N)=O)[C@@H](C)CC [Example 148] (H-Y[Aib]EGT[αMePhe(2-F)]TSDYSI[αMeL]LDEK([AEEA-AEEA-γGlu-C20 diacid])AQ[Aib]EFIAYLIEGGPSSGAPPPS-NH2)
[1]
  EC50: 0.0626 nM
[2]
  EC50: 0.043 nM

## CC[C@H](C)[C@H](NC(=O)[C@H](CC(C)C)NC(=O)[C@H](Cc1ccc(O)cc1)NC(=O)[C@@H]1CCCN1C(=O)[C@@H](NC(=O)[C@H](Cc1ccccc1)NC(=O)[C@H](CCC(=O)O)NC(=O)C(C)(C)NC(=O)[C@H](CCC(N)=O)NC(=O)[C@H](C)NC(=O)[C@H](CCCCNC(=O)COCCOCCNC(=O)COCCOCCNC(=O)CC[C@H](NC(=O)CCCCCCCCCCCCCCCCCCC(=O)O)C(=O)O)NC(=O)[C@H](CCC(=O)O)NC(=O)[C@H](CC(=O)O)NC(=O)[C@H](CC(C)C)NC(=O)[C@](C)(CC(C)C)NC(=O)[C@@H](NC(=O)[C@H](CO)NC(=O)[C@H](Cc1ccc(O)cc1)NC(=O)[C@H](CC(=O)O)NC(=O)[C@H](CO)NC(=O)[C@@H](NC(=O)[C@](C)(Cc1ccccc1F)NC(=O)[C@@H](NC(=O)CNC(=O)[C@H](CCC(=O)O)NC(=O)C(C)(C)NC(=O)[C@@H](N)Cc1ccc(O)cc1)[C@@H](C)O)[C@@H](C)O)[C@@H](C)CC)[C@@H](C)CC)C(=O)N[C@@H](CCC(=O)O)C(=O)NCC(=O)NCC(=O)N1CCC[C@H]1C(=O)N[C@@H](CO)C(=O)N[C@@H](CO)C(=O)NCC(=O)N[C@@H](C)C(=O)N1CCC[C@H]1C(=O)N1CCC[C@H]1C(=O)N1CCC[C@H]1C(=O)N[C@@H](CO)C(N)=O [Example 151] (H-Y[Aib]EGT[αMePhe(2-F)]TSDYSI[αMeL]LDEK([AEEA-AEEA-γGlu-C20 diacid])AQ[Aib]EFIPYLIEGGPSSGAPPPS-NH2; N-terminus assumed)
[1]
  EC50: 1.6 nM
[2]
  EC50: 0.41 nM
